Measurements taken from article PMC12000094, “Development of a highly sensitive luciferase assay for intracellular evaluation of coronavirus Mpro activity” (Frontiers in Microbiology, 2025).
Where two headings read alike, the source gives them in different places. Square brackets hold non-standard residues; d marks the D form. Peptide text beside a SMILES is read from it. Nle = CCCC[C@H](N)C(=O)O

What was measured:
HCoV-229E [1] = test: microbe, parasite or virus in culture; format: cell-based, HCoV-229E (Huh-7 cells); details: for antiviral potency against HCoV 229E in words: ICMP assay, Huh-7 cells; for IC50: read-out: IC50 (inhibition of luciferase expression, HCoV-229E infection)
HCoV-229E [2] = test: RT-qPCR of viral RNA and Mpro gene in HCoV-229E-infected, drug-treated Huh-7 cells; format: cell-based, HCoV-229E (Huh-7 cells); details: infected Huh-7 cells, 48 h post-infection
229E coronavirus = tested on: 229E coronavirus; parameters: method as in Boras et al., 2021; details: cell-based assay; ref Boras et al., 2021; read-out: IC50 (anti-229E coronavirus activity, previous study); cited from earlier work
[3] = Human coronavirus 229E, Huh-7, 48 h

O=c1cc(-c2ccc(O)c(O)c2)oc2cc(O[C@@H]3O[C@H](CO)[C@@H](O)[C@H](O)[C@H]3O)cc(O)c12 [Cynaroside, luteolin 7-O-β-D-glucoside]
antiviral potency against HCoV 229E in words (HCoV-229E [1]): moderate inhibitory effects
antiviral potency against HCoV 229E in words (HCoV-229E [1]; listed as cynaroside): moderate antiviral activity
IC50 (HCoV-229E [1]): 21600 nM

COc1cccc2[nH]c(C(=O)N[C@@H](CC(C)C)C(=O)N[C@@H](C[C@@H]3CCNC3=O)C(=O)COP(=O)(O)O)cc12 [Lufotrelvir]
intracellular 229E Mpro expression (RT-qPCR, normalized to GAPDH) versus drug concentration (HCoV-229E [2]; increasing drug concentration): decreased significantly
HCoV 229E viral RNA levels (RT-qPCR, normalized to GAPDH) versus drug concentration (HCoV-229E [2]; increasing drug concentrations): negative correlation
IC50 (HCoV-229E [1]; [3]): 65 nM
IC50 (229E coronavirus): 58 nM

CC(C)(C)NC(=O)N[C@H](C(=O)N1C[C@H]2[C@@H]([C@H]1C(=O)NC(CC1CCC1)C(=O)C(N)=O)C2(C)C)C(C)(C)C (stereo partly drawn) [Boceprevir]
IC50 (HCoV-229E [1]; [3]): > 50000 nM
antiviral potency against HCoV 229E in words (HCoV-229E [1]): very weak inhibitory potency

CC(C)C[C@H](NC(=O)OCc1ccccc1)C(=O)N[C@@H](CC1CCNC1=O)C(O)S(=O)(=O)O (stereo partly drawn) [GC376]
IC50 (HCoV-229E [1]): 345 nM

CC(C)(C)c1ccc(N(C(=O)c2cnc[nH]2)[C@@H](C(=O)NC2CCCCC2)c2cccnc2)cc1 [X77]
IC50 (HCoV-229E [1]): 457 nM

CC(C)(C)[C@H](NC(=O)C(F)(F)F)C(=O)N1C[C@H]2[C@@H]([C@H]1C(=O)N[C@H](C#N)C[C@@H]1CCNC1=O)C2(C)C [Nirmatrelvir]
IC50 (HCoV-229E [1]; [3]): 233 nM

CC(C)C[C@H](NC(=O)OCc1ccccc1)C(=O)N[C@@H](C[C@@H]1CCNC1=O)C(O)S(=O)(=O)[O-].[Na+] (stereo partly drawn) [GC376]
antiviral potency against HCoV 229E in words (HCoV-229E [1]): effectively suppresses the replication

CCCC[C@@H](C=O)NC(=O)[C@H](CC(C)C)NC(=O)[C@H](CC(C)C)NC(C)=O [MG-101] (Ac-Leu-Leu-[Nle]-aldehyde)
antiviral potency against HCoV 229E in words (HCoV-229E [1]): moderate cellular inhibition
IC50 (HCoV-229E [1]): 2800 nM
